The nature of data set [1]: Relative solubility by turbidity in aqueous buffers of varying pH. Type of data set: physicochemical. Particulars: for turbidity threshold (L, M, H) 7.4: HEPES pH 7.4; for turbidity threshold (L, M, H) 4.5: SIF pH 4.5; for turbidity threshold (L, M, H) 6.8: SIF pH 6.8; for turbidity threshold (L, M, H) 1.4: buffer pH 1.4 (SGF). A digest of the protocol:
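Turbidity endpoint: concentration where optical density at 490, 535 and 650 nm exceeds 0.01, three-wavelength average used. Buffers at pH 1.5, 4.5, 6.8 and 7.4; DMSO serial dilutions of 25 mM stock spiked 1 μL into 99 μL buffer. Low <31.3, moderate 31.3–250, high >250 μM.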

The next data set deals with c-Raf-1 (Homo sapiens, UniProt P04049). Nature of the data set: c-Raf-1 biochemical kinase inhibition (AlphaScreen, biotin-MEK1 substrate). Particulars: 100 μM ATP. The gist of the method: (§1)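 Serial 1:3 dilutions of compound (0.1 mM DMSO stock, eight points) were added first, then ATP to start the reaction at 100 μM final.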
Sequence of c-Raf-1 (P04049 whole entry): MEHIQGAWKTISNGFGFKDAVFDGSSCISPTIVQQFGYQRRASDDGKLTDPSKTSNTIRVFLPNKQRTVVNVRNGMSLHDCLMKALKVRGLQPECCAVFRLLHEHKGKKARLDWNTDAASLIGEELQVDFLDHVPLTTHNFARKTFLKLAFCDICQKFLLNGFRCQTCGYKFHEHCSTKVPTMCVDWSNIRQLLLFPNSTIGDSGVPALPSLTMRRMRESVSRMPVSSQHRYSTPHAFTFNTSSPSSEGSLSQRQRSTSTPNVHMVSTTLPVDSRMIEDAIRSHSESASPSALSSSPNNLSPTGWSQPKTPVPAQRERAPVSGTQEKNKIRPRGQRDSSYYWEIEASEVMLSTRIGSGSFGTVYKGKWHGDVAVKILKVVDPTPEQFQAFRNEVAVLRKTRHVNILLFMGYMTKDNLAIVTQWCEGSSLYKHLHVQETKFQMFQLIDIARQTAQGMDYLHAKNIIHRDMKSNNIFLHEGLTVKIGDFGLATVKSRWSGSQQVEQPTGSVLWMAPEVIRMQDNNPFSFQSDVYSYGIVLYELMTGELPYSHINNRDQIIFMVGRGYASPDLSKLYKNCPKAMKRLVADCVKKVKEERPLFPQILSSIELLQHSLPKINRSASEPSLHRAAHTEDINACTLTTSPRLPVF
Background: Bead proximity is the source of the signal in Alpha formats.

The target of a further data set is CYP2C9 (Homo sapiens, UniProt P11712). Nature of the data set: CYP2C9 inhibition (fluorescent substrate). Type of data set: in vitro ADME. Particulars: CYP2C9, MFC substrate; read-out: Cyp IC50 2C9. A digest of the protocol: (§2)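 First, 100 mM DMSO stocks are diluted into acetonitrile, then twofold through co-factor mix for 10 points. Next, mixtures are preincubated 10 min at 37 °C.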
Sequence of CYP2C9 (P11712 whole entry): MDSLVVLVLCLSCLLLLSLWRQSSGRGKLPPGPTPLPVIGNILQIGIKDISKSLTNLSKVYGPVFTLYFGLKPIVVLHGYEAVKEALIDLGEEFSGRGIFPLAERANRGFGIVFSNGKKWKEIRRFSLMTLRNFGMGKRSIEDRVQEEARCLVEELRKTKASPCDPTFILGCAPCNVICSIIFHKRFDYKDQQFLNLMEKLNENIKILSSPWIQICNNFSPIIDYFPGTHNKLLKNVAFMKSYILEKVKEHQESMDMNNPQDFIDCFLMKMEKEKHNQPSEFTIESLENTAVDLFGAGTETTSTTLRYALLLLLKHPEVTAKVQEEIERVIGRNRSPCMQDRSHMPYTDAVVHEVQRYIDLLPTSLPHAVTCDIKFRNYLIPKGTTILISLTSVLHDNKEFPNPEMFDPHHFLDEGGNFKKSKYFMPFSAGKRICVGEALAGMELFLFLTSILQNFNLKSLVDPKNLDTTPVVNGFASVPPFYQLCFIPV

A further data set concerns the target B-Raf V600E (Homo sapiens, UniProt P15056, V600E). The data set can be described thus: B-Raf V600E biochemical kinase inhibition (AlphaScreen, biotin-MEK1 substrate). Conditions: 100 μM ATP. A digest of the protocol: as §1
The target of a further data set is CYP2C19 (Homo sapiens, UniProt P33261). The data set can be described thus: CYP2C19 inhibition (fluorescent substrate). Type of data set: in vitro ADME. Conditions: CYP2C19, CEC substrate; read-out: Cyp IC50 2C19. A digest of the protocol:
as §2

For the next data set, the target named is T1, A-Raf (Homo sapiens, UniProt P10398).
T1 sequence (P10398 1-606): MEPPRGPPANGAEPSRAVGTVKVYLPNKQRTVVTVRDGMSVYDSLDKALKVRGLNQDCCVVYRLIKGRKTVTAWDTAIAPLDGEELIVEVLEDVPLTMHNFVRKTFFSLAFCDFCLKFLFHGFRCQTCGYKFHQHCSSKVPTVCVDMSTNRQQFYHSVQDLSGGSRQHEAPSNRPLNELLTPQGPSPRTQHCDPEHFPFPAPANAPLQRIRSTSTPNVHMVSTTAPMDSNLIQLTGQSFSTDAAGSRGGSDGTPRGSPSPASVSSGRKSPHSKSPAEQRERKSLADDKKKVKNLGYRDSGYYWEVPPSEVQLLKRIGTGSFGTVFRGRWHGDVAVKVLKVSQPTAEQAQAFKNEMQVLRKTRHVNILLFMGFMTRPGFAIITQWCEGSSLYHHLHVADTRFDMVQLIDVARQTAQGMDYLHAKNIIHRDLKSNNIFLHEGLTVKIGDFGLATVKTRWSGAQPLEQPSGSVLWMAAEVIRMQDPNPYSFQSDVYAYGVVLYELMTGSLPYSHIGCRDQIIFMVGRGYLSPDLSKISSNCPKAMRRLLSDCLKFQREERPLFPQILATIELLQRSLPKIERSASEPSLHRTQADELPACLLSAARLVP
Nature of the data set: A-Raf biochemical kinase inhibition (AlphaScreen, biotin-MEK1 substrate). Particulars: 100 μM ATP. As to the method:
Compounds to be tested are diluted in dimethyl sulfoxide to a concentration of 0.1 mM. These are serially diluted 15 μL into 30 μL of dimethyl sulfoxide seven times in 96 well plates for a total of 8 dilution points, and for each dilution point 1 μL is added to a well of an assay plate. […] The reaction is started with addition of 10 μL of 200 μM ATP (i.e. final 100 μM ATP). […] The plates are incubated for 3 hours at room temperature and read on Envision reader (Perkin Elmer). […] The signal vs. compound concentration is used to determine the IC50.

Sequence of CYP2C19 (P33261 whole entry): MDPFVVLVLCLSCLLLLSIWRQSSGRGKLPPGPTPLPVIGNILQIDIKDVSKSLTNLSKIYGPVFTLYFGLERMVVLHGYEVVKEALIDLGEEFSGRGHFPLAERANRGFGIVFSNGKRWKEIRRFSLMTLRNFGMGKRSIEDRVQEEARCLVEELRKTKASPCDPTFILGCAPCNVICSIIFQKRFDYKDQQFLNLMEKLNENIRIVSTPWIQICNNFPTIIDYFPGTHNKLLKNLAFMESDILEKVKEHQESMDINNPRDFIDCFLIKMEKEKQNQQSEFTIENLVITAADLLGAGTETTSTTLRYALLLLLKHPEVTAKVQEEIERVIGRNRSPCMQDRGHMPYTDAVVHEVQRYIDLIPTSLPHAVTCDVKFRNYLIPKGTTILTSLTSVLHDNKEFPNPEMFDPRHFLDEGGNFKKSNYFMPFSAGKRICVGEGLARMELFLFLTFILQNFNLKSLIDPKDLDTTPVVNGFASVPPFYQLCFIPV
Sequence of B-Raf V600E (P15056 whole entry V600E): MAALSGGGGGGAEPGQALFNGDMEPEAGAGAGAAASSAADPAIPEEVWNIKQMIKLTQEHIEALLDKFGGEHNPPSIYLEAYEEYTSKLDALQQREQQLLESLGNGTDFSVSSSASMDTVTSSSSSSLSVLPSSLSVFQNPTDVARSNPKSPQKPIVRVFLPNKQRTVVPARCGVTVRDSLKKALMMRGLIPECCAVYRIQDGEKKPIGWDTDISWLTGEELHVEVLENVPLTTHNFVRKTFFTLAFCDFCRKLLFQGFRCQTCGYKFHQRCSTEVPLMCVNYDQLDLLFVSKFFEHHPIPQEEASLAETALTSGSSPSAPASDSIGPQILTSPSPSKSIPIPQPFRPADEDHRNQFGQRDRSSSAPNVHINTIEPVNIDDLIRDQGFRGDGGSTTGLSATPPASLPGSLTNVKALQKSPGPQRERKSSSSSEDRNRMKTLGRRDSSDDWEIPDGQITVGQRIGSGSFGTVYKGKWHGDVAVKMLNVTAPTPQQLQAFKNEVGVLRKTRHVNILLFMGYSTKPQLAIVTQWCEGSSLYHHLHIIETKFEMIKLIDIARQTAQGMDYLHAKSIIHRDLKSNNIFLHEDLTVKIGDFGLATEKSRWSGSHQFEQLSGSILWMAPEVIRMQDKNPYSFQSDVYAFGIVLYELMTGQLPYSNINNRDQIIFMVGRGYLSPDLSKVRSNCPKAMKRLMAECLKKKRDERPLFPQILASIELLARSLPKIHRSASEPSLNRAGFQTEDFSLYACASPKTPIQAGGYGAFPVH

For `O=C(c1c(F)ccc(NS(=O)(=O)c2cc(F)ccc2F)c1F)c1c[nH]c2ncc(Cl)cc12` [P-2002, N-[3-(5-Chloro-1H-pyrrolo[2,3-b]pyridine-3-carbonyl)-2,4-difluoro-phenyl]-2,5-difluoro-benzenesulfonamide], in data set [1], the “turbidity threshold (L, M, H) 7.4” value was “M (moderate solubility if the threshold concentration is 31.3 μM to 250 μM)”. In addition, the “turbidity threshold (L, M, H) 4.5” value in data set [1] was “L (low solubility if the threshold concentration is <31.3 04)”. For the same molecule, in data set [1], the “turbidity threshold (L, M, H) 6.8” value is listed as “M (moderate solubility if the threshold concentration is 31.3 μM to 250 μM)”. Besides, the “turbidity threshold (L, M, H) 1.4” value in data set [1] was “L (low solubility if the threshold concentration is <31.3 04)”. The IC50 (as a rule, the midpoint of a concentration-inhibition curve) against c-Raf-1 is below 10 nM; on CYP2C9, 5000 to 10000 nM; at B-Raf V600E it was below 10 nM; at CYP2C19, 5000 to 10000 nM; against A-Raf, below 10 nM.

With `COc1cnc2[nH]cc(C(=O)c3c(F)ccc(NS(=O)(=O)c4cc(F)ccc4F)c3F)c2c1` [P-2010, N-[2,4-Difluoro-3-(5-methoxy-1H-pyrrolo[2,3-b]pyridine-3-carbonyl)-phenyl]-2,5-difluoro-benzenesulfonamide], the “turbidity threshold (L, M, H) 7.4” value in data set [1] is “M (moderate solubility if the threshold concentration is 31.3 μM to 250 μM)”. Further, the “turbidity threshold (L, M, H) 4.5” value in data set [1] is reported as “L (low solubility if the threshold concentration is <31.3 04)”. The “turbidity threshold (L, M, H) 6.8” value in data set [1] was “M (moderate solubility if the threshold concentration is 31.3 μM to 250 μM)”. In addition, the “turbidity threshold (L, M, H) 1.4” value in data set [1] is given as “L (low solubility if the threshold concentration is <31.3 04)”. Besides, the IC50 against c-Raf-1 was below 10 nM; at CYP2C9 it was above 10000 nM; against B-Raf V600E it was below 10 nM; on CYP2C19, above 10000 nM; against A-Raf it was below 10 nM.

Turning to `N#Cc1ccnc2[nH]cc(C(=O)c3c(F)ccc(NS(=O)(=O)c4ccccc4F)c3F)c12` [P-2020, N-[3-(4-Cyano-1H-pyrrolo[2,3-b]pyridine-3-carbonyl)-2,4-difluoro-phenyl]-2-fluoro-benzenesulfonamide], the “turbidity threshold (L, M, H) 7.4” value in data set [1] is on record as “M (moderate solubility if the threshold concentration is 31.3 μM to 250 μM)”. For the same molecule, the “turbidity threshold (L, M, H) 4.5” value in data set [1] is recorded as “M (moderate solubility if the threshold concentration is 31.3 μM to 250 μM)”. The “turbidity threshold (L, M, H) 6.8” value in data set [1] is listed as “M (moderate solubility if the threshold concentration is 31.3 μM to 250 μM)”. Besides, the “turbidity threshold (L, M, H) 1.4” value in data set [1] was “M (moderate solubility if the threshold concentration is 31.3 μM to 250 μM)”. Further, the IC50 is below 10 nM on c-Raf-1; above 10000 nM on CYP2C9; below 10 nM against B-Raf V600E; above 10000 nM at CYP2C19; below 10 nM against A-Raf.

On to `COc1ccnc2[nH]cc(C(=O)c3c(F)ccc(NS(=O)(=O)c4cc(F)ccc4F)c3F)c12` [P-2022, N-[2,4-Difluoro-3-(4-methoxy-1H-pyrrolo[2,3-b]pyridine-3-carbonyl)-phenyl]-2,5-difluoro-benzenesulfonamide], for which, in data set [1], the “turbidity threshold (L, M, H) 7.4” value was “H (high solubility if the threshold concentration is >250 μM)”. For the same molecule, in data set [1], the “turbidity threshold (L, M, H) 4.5” value is on record as “M (moderate solubility if the threshold concentration is 31.3 μM to 250 μM)”. Besides, in data set [1], the “turbidity threshold (L, M, H) 6.8” value is given as “M (moderate solubility if the threshold concentration is 31.3 μM to 250 μM)”. Also, the “turbidity threshold (L, M, H) 1.4” value in data set [1] was “H (high solubility if the threshold concentration is >250 μM)”. Also, the IC50 against c-Raf-1 is below 10 nM; on CYP2C9, 5000 to 10000 nM; at B-Raf V600E, below 10 nM; at CYP2C19, above 10000 nM; against A-Raf it was below 100 nM.

With `N#Cc1ccnc2[nH]cc(C(=O)c3c(F)ccc(NS(=O)(=O)c4cc(F)ccc4F)c3F)c12` [P-2036, N-[3-(4-Cyano-1H-pyrrolo[2,3-b]pyridine-3-carbonyl)-2,4-difluoro-phenyl]-2,5-difluoro-benzenesulfonamide], the IC50 is below 10 nM against c-Raf-1; above 10000 nM on CYP2C9; below 10 nM against B-Raf V600E; above 10000 nM on CYP2C19; below 10 nM against A-Raf.

With `N#Cc1ccnc2[nH]cc(C(=O)c3c(F)ccc(NS(=O)(=O)c4c(F)cccc4F)c3F)c12` [P-2037, N-[3-(4-Cyano-1H-pyrrolo[2,3-b]pyridine-3-carbonyl)-2,4-difluoro-phenyl]-2,6-difluoro-benzenesulfonamide], the IC50 against c-Raf-1 is below 10 nM; at CYP2C9, above 10000 nM; against B-Raf V600E, below 10 nM; on CYP2C19 it was above 10000 nM; at A-Raf, below 10 nM.

For `N#Cc1ccnc2[nH]cc(C(=O)c3c(F)ccc(NS(=O)(=O)c4cccc(F)c4)c3F)c12` [P-2039, N-[3-(4-Cyano-1H-pyrrolo[2,3-b]pyridine-3-carbonyl)-2,4-difluoro-phenyl]-3-fluoro-benzenesulfonamide], the IC50 was below 10 nM at c-Raf-1; above 10000 nM on CYP2C9; below 10 nM against B-Raf V600E; above 10000 nM at CYP2C19; below 10 nM at A-Raf.

Regarding `N#Cc1ccnc2[nH]cc(C(=O)c3c(F)ccc(NS(=O)(=O)c4cccnc4)c3F)c12` [P-2077, Pyridine-3-sulfonic acid [3-(4-cyano-1H-pyrrolo[2,3-b]pyridine-3-carbonyl)-2,4-difluoro-phenyl]-amide], the half-maximal inhibitory concentration (IC50) is below 10 nM at c-Raf-1; 5000 to 10000 nM at CYP2C9; below 10 nM on B-Raf V600E; above 10000 nM on CYP2C19; below 10 nM against A-Raf.

As to `CCCS(=O)(=O)Nc1ccc(F)c(C(=O)c2c[nH]c3ncc(-c4ccc(NS(C)(=O)=O)cc4)cc23)c1F` [P-2165, Propane-1-sulfonic acid {2,4-difluoro-3-[5-(4-methanesulfonylamino-phenyl)-1H-pyrrolo[2,3-b]pyridine-3-carbonyl]-phenyl}-amide], in data set [1], the “turbidity threshold (L, M, H) 7.4” value was “L (low solubility if the threshold concentration is <31.3 04)”. In addition, the “turbidity threshold (L, M, H) 4.5” value in data set [1] is “L (low solubility if the threshold concentration is <31.3 04)”. The “turbidity threshold (L, M, H) 6.8” value in data set [1] was “L (low solubility if the threshold concentration is <31.3 04)”. In data set [1], the “turbidity threshold (L, M, H) 1.4” value is recorded as “L (low solubility if the threshold concentration is <31.3 04)”. Further, the IC50 is below 10 nM against c-Raf-1; 5000 to 10000 nM on CYP2C9; below 10 nM against B-Raf V600E; 5000 to 10000 nM at CYP2C19; below 10 nM against A-Raf.

Take `CCCc1ccc(-c2cnc3[nH]cc(C(=O)c4c(F)ccc(NS(=O)(=O)CCC)c4F)c3c2)cn1` [P-2224, Propane-1-sulfonic acid {2,4-difluoro-3-[5-(6-propyl-pyridin-3-yl)-1H-pyrrolo[2,3-b]pyridine-3-carbonyl]-phenyl}-amide]: the IC50 is below 10 nM at c-Raf-1; 5000 to 10000 nM at CYP2C9; below 10 nM against B-Raf V600E; 5000 to 10000 nM at CYP2C19; below 10 nM on A-Raf.

In the case of `CCCS(=O)(=O)Nc1ccc(F)c(C(=O)c2c[nH]c3ncc(-c4ccc(N5CCCC5)nc4)cc23)c1F` [P-2231, Propane-1-sulfonic acid {2,4-difluoro-3-[5-(6-pyrrolidin-1-yl-pyridin-3-yl)-1H-pyrrolo[2,3-b]pyridine-3-carbonyl]-phenyl}-amide], the “turbidity threshold (L, M, H) 7.4” value in data set [1] was “L (low solubility if the threshold concentration is <31.3 04)”. In addition, the “turbidity threshold (L, M, H) 4.5” value in data set [1] is recorded as “L (low solubility if the threshold concentration is <31.3 04)”. Further, the “turbidity threshold (L, M, H) 6.8” value in data set [1] is “L (low solubility if the threshold concentration is <31.3 04)”. Besides, the “turbidity threshold (L, M, H) 1.4” value in data set [1] was “L (low solubility if the threshold concentration is <31.3 04)”. Moreover, the IC50 against c-Raf-1 was below 100 nM; at CYP2C9, 5000 to 10000 nM; against B-Raf V600E, below 10 nM; on CYP2C19, 5000 to 10000 nM; at A-Raf it was below 10 nM.

Source of the values: US8198273B2, “Compounds and methods for kinase modulation, and indications therefor” (Plexxikon Inc., priority 2009, dated 2012).
